Source: ChEMBL document CHEMBL6103603, “Novel Imidazo[4,5-c]pyridine Compounds as TLR7 Agonists for Treating Cancer” (ACS Med Chem Lett, 2025)

Target: T1, Toll-like receptor 7 (Homo sapiens, UniProt Q9NYK1)
T1 sequence (Q9NYK1 whole entry): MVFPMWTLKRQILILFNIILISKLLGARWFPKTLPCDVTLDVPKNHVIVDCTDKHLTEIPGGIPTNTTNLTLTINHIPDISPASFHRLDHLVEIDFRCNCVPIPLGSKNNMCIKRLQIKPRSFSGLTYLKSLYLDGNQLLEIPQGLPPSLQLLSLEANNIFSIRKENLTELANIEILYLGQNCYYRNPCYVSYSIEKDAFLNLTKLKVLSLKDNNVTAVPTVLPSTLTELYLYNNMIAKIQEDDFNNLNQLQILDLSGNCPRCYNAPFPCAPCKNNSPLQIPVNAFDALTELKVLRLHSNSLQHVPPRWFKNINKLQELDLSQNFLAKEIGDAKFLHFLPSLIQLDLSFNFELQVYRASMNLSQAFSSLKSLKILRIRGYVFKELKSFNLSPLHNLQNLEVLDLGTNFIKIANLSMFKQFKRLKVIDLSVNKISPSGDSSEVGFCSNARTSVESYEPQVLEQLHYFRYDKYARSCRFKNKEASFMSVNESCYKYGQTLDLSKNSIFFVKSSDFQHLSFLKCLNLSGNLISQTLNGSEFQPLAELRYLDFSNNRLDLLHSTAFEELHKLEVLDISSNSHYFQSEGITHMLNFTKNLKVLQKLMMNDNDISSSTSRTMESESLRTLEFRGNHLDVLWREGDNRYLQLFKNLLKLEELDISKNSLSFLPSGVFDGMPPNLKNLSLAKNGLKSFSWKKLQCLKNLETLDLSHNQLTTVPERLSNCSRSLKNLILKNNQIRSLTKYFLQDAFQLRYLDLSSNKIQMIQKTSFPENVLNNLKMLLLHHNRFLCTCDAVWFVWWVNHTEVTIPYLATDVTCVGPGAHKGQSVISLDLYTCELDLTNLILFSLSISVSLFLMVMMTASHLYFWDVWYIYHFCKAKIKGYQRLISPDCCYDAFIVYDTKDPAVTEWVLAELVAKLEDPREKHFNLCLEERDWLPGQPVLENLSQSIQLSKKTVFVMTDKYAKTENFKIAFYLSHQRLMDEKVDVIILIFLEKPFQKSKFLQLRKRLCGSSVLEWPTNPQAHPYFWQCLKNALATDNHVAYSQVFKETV
Assay: Agonist activity at TLR7 in HEK-Blue hTLR7 cells expressing NF-kappaB/AP-1 inducible SEAP reporter gene using Quanti-blue as substrate preincubated for 20 hrs followed by substrate addition and measured after 1 hr by spectrophotometric analysis
Assay type: cell-based

CCOCc1nc2c(N)nc(C)c(Sc3ccc(CN(C)C)c(O)c3)c2[nH]1
EC50: 0.01 µM
